According to the supplement of paper PMC10883282:
± gives the standard deviation of the averaged measurements.

Test system: G401
Assay: relative viability vs DMSO control (72 h) (fraction); higher = more viable cells
Procedure, shortened: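 Percent growth from ATPLite readings, averaged over up to triplicate wells, was used as relative viability. Sarcoma cell lines were seeded into 384-well plates for 80–90% confluence, dosed after 24 h, and kept 72 h at 37 °C, 5% CO2. Data were rescaled to a range where 1 is full and 0 is none.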

SMILES | relative viability (2 pM) | relative viability (5 pM) | relative viability (15 pM) | relative viability (50 pM) | relative viability (0.00014 µM) | relative viability (0.00041 µM) | relative viability (0.0012 µM) | relative viability (0.0037 µM) | relative viability (0.011 µM) | relative viability (200 fM) | relative viability (600 fM) | relative viability (0.00017 µM) | relative viability (0.00051 µM) | relative viability (0.00152 µM) | relative viability (0.00457 µM) | relative viability (0.01372 µM) | relative viability (0.04115 µM) | relative viability (0.1235 µM) | relative viability (0.3704 µM) | relative viability (1.111 µM) | relative viability (3.333 µM) | relative viability (10 µM)
COc1cc2c(cc1O)CCN[C@]21CS[C@@H]2c3c(OC(C)=O)c(C)c4c(c3[C@H](COC1=O)N1[C@@H]2[C@H]2c3c(cc(C)c(OC)c3O)C[C@@H]([C@@H]1O)N2C)OCO4 [Trabectedin] | 1.03 ± 0.017 | 1.02 ± 0.025 | 0.993 ± 0.018 | 0.991 ± 0.014 | 0.832 ± 0.043 | 0.516 ± 0.024 | 0.0964 ± 0.077 | 0.126 ± 0.016 | 0.0862 ± 0.0056 | 1.05 ± 0.032 | 1.03 ± 0.04 |  |  |  |  |  |  |  |  |  |  | 
C=CC(=O)Nc1cccc(Oc2nc(Nc3ccc(N4CCN(C)CC4)cc3)nc3ccsc23)c1 [Olmutinib] |  |  |  |  |  |  |  |  |  |  |  | 0.984 ± 0.021 | 0.976 ± 0.048 | 0.969 ± 0.022 | 0.984 ± 0.039 | 0.96 ± 0.03 | 0.986 ± 0.043 | 1 ± 0.041 | 1.01 ± 0.043 | 0.916 ± 0.018 | 0.759 ± 0.019 | 0.481 ± 0.036
CC(C)NC(=O)C1CCC(n2c(NC(=O)c3ccc(F)cc3)nc3ccc(CN4CCC(C(C)(C)O)CC4)cc32)CC1 (stereo not drawn) [Belizatinib] |  |  |  |  |  |  |  |  |  |  |  | 1.01 ± 0.043 | 0.997 ± 0.054 | 1.01 ± 0.061 | 1 ± 0.064 | 1.02 ± 0.022 | 1.01 ± 0.015 | 0.974 ± 0.038 | 0.877 ± 0.026 | 0.606 ± 0.015 | 0.305 ± 0.027 | 0.154 ± 0.02
CCN1CCN(Cc2ccc(Nc3ncc(F)c(-c4cc(F)c5nc(C)n(C(C)C)c5c4)n3)nc2)CC1 [Abemaciclib] |  |  |  |  |  |  |  |  |  |  |  | 0.985 ± 0.03 | 0.964 ± 0.018 | 0.924 ± 0.048 | 0.922 ± 0.061 | 0.857 ± 0.051 | 0.822 ± 0.037 | 0.796 ± 0.044 | 0.786 ± 0.048 | 0.758 ± 0.017 | 0.746 ± 0.037 | 0.6941 ± 0.0055
COc1c(OCCCN2CCOCC2)ccc2c1N=C(NC(=O)c1cnc(N)nc1)N1CCN=C21 [Copanlisib] |  |  |  |  |  |  |  |  |  |  |  | 1.024 ± 0.0087 | 1 ± 0.024 | 0.959 ± 0.039 | 0.7934 ± 0.0059 | 0.702 ± 0.018 | 0.582 ± 0.033 | 0.537 ± 0.037 | 0.499 ± 0.043 | 0.476 ± 0.047 | 0.468 ± 0.02 | 0.477 ± 0.044
Cc1nc(-c2cn3c(n2)-c2ccc(-c4cnn(C(C)(C)C(N)=O)c4)cc2OCC3)n(C(C)C)n1 [Taselisib] |  |  |  |  |  |  |  |  |  |  |  | 0.995 ± 0.022 | 0.968 ± 0.045 | 0.969 ± 0.032 | 0.923 ± 0.011 | 0.866 ± 0.019 | 0.7976 ± 0.0064 | 0.68 ± 0.03 | 0.592 ± 0.027 | 0.499 ± 0.021 | 0.439 ± 0.019 | 0.347 ± 0.018
O=C(Cc1ccc(-c2ccc(OCCN3CCOCC3)cc2)cn1)NCc1ccccc1 [KX2-391] |  |  |  |  |  |  |  |  |  |  |  | 1.05 ± 0.047 | 1.05 ± 0.025 | 1.02 ± 0.033 | 1.05 ± 0.036 | 1.022 ± 0.0094 | 0.944 ± 0.027 | 0.555 ± 0.019 | 0.446 ± 0.013 | 0.421 ± 0.013 | 0.38 ± 0.014 | 0.368 ± 0.0095
C[C@@H]1COCCN1c1cc(-c2ccnn2C)c2ccnc(-c3ccn[nH]3)c2n1 |  |  |  |  |  |  |  |  |  |  |  | 0.996 ± 0.018 | 0.9815 ± 0.0068 | 1 ± 0.011 | 1.01 ± 0.023 | 0.997 ± 0.02 | 0.915 ± 0.026 | 0.803 ± 0.043 | 0.675 ± 0.0044 | 0.598 ± 0.0066 | 0.517 ± 0.012 | 0.486 ± 0.012
Cc1cnc(Nc2ccc(OCCN3CCCC3)cc2)nc1Nc1cccc(S(=O)(=O)NC(C)(C)C)c1 [Fedratinib] |  |  |  |  |  |  |  |  |  |  |  | 1.029 ± 0.0083 | 1.05 ± 0.029 | 1.038 ± 0.0091 | 1.03 ± 0.019 | 1.04 ± 0.011 | 0.997 ± 0.024 | 0.919 ± 0.015 | 0.8157 ± 0.0074 | 0.499 ± 0.0075 | 0.204 ± 0.012 | 0.0136 ± 0.00091
CC(C)N1CCN(Cc2cnc(-c3cc(-c4cccc5[nH]ccc45)cc4[nH]ncc34)o2)CC1 [Nemiralisib] |  |  |  |  |  |  |  |  |  |  |  | 0.962 ± 0.043 | 0.933 ± 0.035 | 0.883 ± 0.015 | 0.921 ± 0.033 | 0.904 ± 0.035 | 0.911 ± 0.048 | 0.916 ± 0.013 | 0.877 ± 0.01 | 0.833 ± 0.021 | 0.735 ± 0.026 | 0.609 ± 0.012
Cc1ccc(NC(=O)c2ccc(CN3CCN(C)CC3)cc2)cc1Nc1nc(-c2cccnc2)cs1 [Masitinib] |  |  |  |  |  |  |  |  |  |  |  | 0.973 ± 0.058 | 0.9736 ± 0.0054 | 0.9669 ± 0.0091 | 0.9556 ± 0.0058 | 0.979 ± 0.026 | 0.971 ± 0.047 | 0.931 ± 0.024 | 0.843 ± 0.056 | 0.687 ± 0.0084 | 0.388 ± 0.014 | 0.0983 ± 0.005
CCc1cc2c(cc1N1CCC(N3CCOCC3)CC1)C(C)(C)c1[nH]c3cc(C#N)ccc3c1C2=O [Alectinib] |  |  |  |  |  |  |  |  |  |  |  | 0.947 ± 0.037 | 0.983 ± 0.023 | 0.977 ± 0.028 | 0.991 ± 0.037 | 0.981 ± 0.026 | 0.954 ± 0.029 | 1.01 ± 0.031 | 1.01 ± 0.056 | 1.03 ± 0.057 | 0.991 ± 0.039 | 0.894 ± 0.037
COc1cc2nccc(Oc3ccc(NC(=O)Nc4cc(C)on4)c(Cl)c3)c2cc1OC [Tivozanib] |  |  |  |  |  |  |  |  |  |  |  | 1.01 ± 0.025 | 1.03 ± 0.035 | 1.04 ± 0.025 | 1.04 ± 0.019 | 1.04 ± 0.023 | 0.98 ± 0.044 | 0.992 ± 0.056 | 0.99 ± 0.021 | 0.965 ± 0.034 | 0.713 ± 0.019 | 0.381 ± 0.0095
